Experimental data: EP4620954A1, “CDK2 INHIBITOR, PREPARATION METHOD THEREFOR, AND USE THEREOF” (Shandong Luye Pharmaceutical Co., Ltd., priority 2022, dated 2024)
Where two headings read alike, the source gives them in different places.

Tests used:
HCT116 cells = test: Antagonistic effect assay against HCT116 cell proliferation (CellTitle-Glo); assay type: cell-based; details: Homo sapiens, HCT-116, 72 h treatment, 0.01-10.00 µM, read-out: Antiproliferative IC50
Description: Frozen HCT116 cells were rapidly transferred from liquid nitrogen to a 37 °C water bath and rapidly shaken for thawing. The cell suspension was transferred to a 15 mL centrifuge tube and centrifuged at 1500 rpm for 5 min, and the supernatant was discarded. The cell pellet was resuspended in RPMI-1640 complete medium (containing 10% fetal bovine serum and 1% penicillin/streptomycin) and transferred to a cell culture dish containing 10 mL of medium. The cells were cultured in an incubator at 37 °C/5% CO2. The cells were passaged after adhesion to the wall.
HCT116 cells in the logarithmic growth phase and in good condition were taken, digested with a trypsin solution, resuspended in a certain amount of RPMI-1640 complete medium to form a single-cell suspension, counted on a cell counting plate, and seeded into a 96-well white plate at a density of 800 cells/well. The plate was left to stand for 5 min and then incubated in an incubator at 37 °C/5% CO2 overnight. The next day, the cells were treated with the compound at different concentrations, and the control group was treated with DMSO at the corresponding concentration. The compound, dissolved in DMSO, was diluted in RPMI-1640 complete medium at a ratio of 1:1000 to obtain final concentrations of 10.00 µM, 3.33 µM, 1.11 µM, 0.37 µM, 0.12 µM, 0.04 µM, and 0.01 µM. Each group was set up with 3 replicate wells, and 100 µL of the treatment solution was added to each well. The plate was incubated in an incubator at 37 °C/5% CO2 for 72 h.
After 72 h of treatment, the CellTitle-Glo assay was performed. 100 µL of CellTitle-Glo solution was added to each well of the control and treatment groups. The plate was mixed on an oscillator for 2 min to induce cell lysis. The 96-well plate was incubated at room temperature for 10 min to stabilize the luminescence signal value. The luminescence signal was measured using a microplate reader. The DMSO-treated cell group was used as the control group, and 50% inhibitory concentration (IC50) was calculated according to the median effect equation as follows: [formula]
The IC50 values of the compounds were calculated using GraphPad Prism nonlinear fitting equation. Table 2. Results for the inhibitory effect of the compounds of the present disclosure on HCT116 cell proliferation

[1] = In-vitro liver microsomal stability, dog; assay type: in vitro ADME; details: dog liver microsomes 0.5 mg/mL, 1 µM, NADPH 1 mM, 37 °C
Description: (§1) Method: The metabolic stability of test substances was evaluated by using human, dog, and SD rat liver microsomes. The test substances were incubated with liver microsomes from different species and NADPH in a water bath at 37 °C. In the incubation system, the final concentration of the test or control sample was 1 µM, the final concentration of liver microsomes was 0.5 mg/mL, the final concentration of NADPH was 1 mM, and the final concentration of MgCl2 was 3 mM. At designated time points (5 min, 10 min, 20 min, 30 min, and 60 min), the reaction was stopped by adding a cold acetonitrile solution containing tolbutamide (at a concentration of 200 ng/mL) as an internal standard. For the 0-min sample, the stop solution was added before the addition of the NADPH working solution. Testosterone and dextromethorphan were used as positive control samples in the same conditions to assess the stability and reliability of the system. After sample pretreatment, semiquantitative analysis was performed using the LC-MS/MS method. The retention times of the analytes and internal standard, the acquisition of chromatograms and the integration of chromatograms were processed using software Analyst (AB Sciex, Framingham, Massachusetts, USA). The remaining percentage of the test samples after 60 min of incubation was calculated, and the test results are shown in Table 3. Table 3. Test data for the compounds of the present disclosure in human, dog, and rat liver microsomes

[2] = Permeability and transporter substrate evaluation, Caco-2 monolayer; assay type: in vitro ADME; details: human, Caco-2, Table 4 experimental system, Caco-2, 2.00 µM
Description: (§2) Cell: Caco-2 cells Instrument: water purification equipment, ELGA LabWate; biosafety cabinet, Nuaire; thermostatic CO2 incubator, Thermo; microplate reader, PerkinElmer; LC-MS/MS, AB SCIEX. Method: The purpose of this study was to determine the two-way permeability of the compounds and evaluate whether they are effluxed and transported by P-glycoprotein (P-gp) using a Caco-2 monolayer cell model. In the experiment, Caco-2 cells were seeded into a 96-well cell plate and cultured for 24 consecutive days for the transport experiment. The compounds were administered bidirectionally at a concentration of 2.00 µM, with or without verapamil. After 120 min of incubation, the samples at the apical end A and the basal end B were collected. The content of the test samples in each sample was measured using the liquid chromatography-tandem mass spectrometry (LC-MS/MS) method. The apparent permeability coefficient and the efflux rate were calculated. Two experimental systems were used successively in this part, with the reference compound (PF-07104091) included. Table 4. Permeability test results

P-glycoprotein (P-gp) = test: as above; assay type: in vitro ADME; details: human, Caco-2, Table 4 experimental system, Caco-2, 2.00 µM
Description: as §2

[3] = In-vitro liver microsomal stability, rat; assay type: in vitro ADME; details: SD rat liver microsomes 0.5 mg/mL, 1 µM, NADPH 1 mM, 37 °C
Description: as §1

[4] = In-vitro liver microsomal stability, human; assay type: in vitro ADME; details: human liver microsomes 0.5 mg/mL, 1 µM, NADPH 1 mM, 37 °C
Description: as §1

CDK1/Cyclin B = target: T1, CDK1/Cyclin B (Homo sapiens, UniProt P06493); test: CDK1 kinase activity assay (TR-FRET); assay type: biochemical
T1 construct: purchased Invitrogen PR4768C
Description: (§3) Compounds were dissolved in DMSO and serially diluted 3-fold to generate 11 concentrations. 100 nL of each compound was added to 384-well plates, followed by the addition of 5 µL of 2× CDK2/Cyclin E1 or CDK1/Cyclin B enzyme mixed solution. 5 µL of buffer (50 mM Hepes (pH 7.5), 10 mM MgCl2, 1 mM EDTA, 0.01% Brij-35, 2 mM DTT (prepared freshly)) was added to the complete inhibition control wells. The plates were centrifuged at 1000 rpm for 30 s and incubated at 23 °C for 15 min. Then, 5 µL of 2× MLight-MBP peptide (containing 10 µM ATP) was added to each well of each assay plate. The plates were centrifuged again at 1000 rpm for 30 s and incubated at 23 °C for 90 min.
(§4) After the incubation was completed, the reaction was stopped with a detection buffer containing 15 mM EDTA and 2 nM Eu-anti-P-MBP antibody. After centrifugation at 1000 rpm for about 1 min, the plates were incubated at 23 °C for 60 min and read on Perkin Elmer Envision.
(§5) The IC50 values of the compounds were calculated using GraphPad Prism nonlinear fitting equation. Table 1. Kinase activity assay

CDK2/Cyclin E1 = target: T2, CDK2/Cyclin E1 (Homo sapiens, UniProt P24941); test: CDK2 kinase antagonistic activity assay (TR-FRET); assay type: biochemical; details: TR-FRET; peptide mix containing 10 µM ATP; 90 min at 23 °C; read-out: CDK2/Cyclin E1 IC50
T2 construct: purchased Invitrogen PV6296
Description: as §3
as §4, with “Envision. The TR-FRET ratio (value at 665 nm/value at 615 nm) was automatically calculated by Envision.” for “Envision.”
as §5

[5] = TR-FRET, peptide mix containing 10 µM ATP, 90 min at 23 °C, read-out: CDK1/Cyclin B1 IC50

T1 sequence (P06493 whole entry): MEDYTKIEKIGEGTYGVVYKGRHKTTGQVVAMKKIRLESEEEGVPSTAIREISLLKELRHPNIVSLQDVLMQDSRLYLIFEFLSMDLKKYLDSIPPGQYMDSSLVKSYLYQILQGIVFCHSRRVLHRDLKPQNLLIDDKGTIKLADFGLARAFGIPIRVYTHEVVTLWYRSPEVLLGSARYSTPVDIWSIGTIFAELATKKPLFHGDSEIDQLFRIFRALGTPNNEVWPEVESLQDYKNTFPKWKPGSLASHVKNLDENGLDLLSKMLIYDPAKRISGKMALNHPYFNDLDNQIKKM
T1 sequence (P14635 whole entry partner): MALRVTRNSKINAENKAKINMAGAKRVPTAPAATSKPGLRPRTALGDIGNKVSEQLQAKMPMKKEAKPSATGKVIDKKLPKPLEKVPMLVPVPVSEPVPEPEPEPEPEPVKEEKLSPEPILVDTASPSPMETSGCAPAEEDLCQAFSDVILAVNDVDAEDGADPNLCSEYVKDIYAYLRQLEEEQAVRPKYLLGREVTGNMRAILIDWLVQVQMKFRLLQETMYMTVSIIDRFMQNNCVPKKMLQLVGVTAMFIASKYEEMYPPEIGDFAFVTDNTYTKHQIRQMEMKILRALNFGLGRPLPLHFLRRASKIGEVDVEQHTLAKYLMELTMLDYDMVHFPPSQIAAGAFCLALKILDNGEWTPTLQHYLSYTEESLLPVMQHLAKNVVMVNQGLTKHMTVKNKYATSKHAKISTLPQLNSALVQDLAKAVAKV

SMILES | IC50 (HCT116 cells) | Remaining amount% at 60 min Dog [1] | Papp A→B at 120 min, 2 µM [2] | Papp B→A at 120 min, 2 µM [2] | efflux ratio at 120 min, 2 µM (P-glycoprotein (P-gp)) | Remaining amount% at 60 min Rat [3] | Remaining amount% at 60 min Human [4] | IC50 (CDK1/Cyclin B; [5]) | IC50 (CDK2/Cyclin E1) | IC50 (CDK1/Cyclin B)
C#CC(C)NC(=O)O[C@@H]1CC[C@H](c2cc(NC(=O)c3cc(COC)nn3C)n[nH]2)C1 (stereo partly drawn) [Compound 4] | 2340 nM | 77.9% | 0.0791 ×10⁻⁶ cm/s | 30.8 ×10⁻⁶ cm/s | 390 | 77.9% | 93.5% | 460 nM | 2.58 nM | 
Cn1nc(CS(C)(=O)=O)cc1C(=O)Nc1cc([C@@H]2C[C@H](OC(=O)N3CCC3(C)C)CO2)[nH]n1 [Compound 27] | 3010 nM | 96.7% |  |  |  | 81.2% | 91.3% | 54.2 nM | 9.32 nM | 
CC(C)NC(=O)O[C@@H]1CC[C@H](c2cc(Nc3ccc(N4CCN(C)CC4)cc3)n[nH]2)C1 [Compound 9] | 2620 nM | 7.34% | 0.52 ×10⁻⁶ cm/s | 43.8 ×10⁻⁶ cm/s | 84.2 | 27.7% | 93.2% | 138 nM | 4.38 nM | 
CC(C)NC(=O)O[C@@H]1CC[C@H](c2cc(NC(=O)c3cc(CS(C)(=O)=O)nn3C)n[nH]2)C1 [Compound 7] | 2250 nM | 101% | < 0.26 ×10⁻⁶ cm/s | 14.4 ×10⁻⁶ cm/s | > 55.4 | 101% | 93.2% | 90 nM | 0.64 nM | 
COCc1cc(C(=O)Nc2cc([C@H]3CC[C@@H](OC(=O)NC(C)C#N)C3)[nH]n2)n(C)n1 (stereo partly drawn) [Compound 1] | 3660 nM | 92.0% | < 0.48 ×10⁻⁶ cm/s | 19.3 ×10⁻⁶ cm/s | > 40.2 | 85.0% | 80.3% | 78.2 nM | 2.24 nM | 
COCc1cc(C(=O)Nc2cc([C@H]3CC[C@@H](OC(=O)NC45CC6CC(CC(C6)C4)C5)C3)[nH]n2)n(C)n1 [Compound 6] | 2640 nM | 30.3% | 0.54 ×10⁻⁶ cm/s | 26.3 ×10⁻⁶ cm/s | 48.7 | 1.80% | 11.0% |  | 0.95 nM | 78.4 nM
COCc1cc(C(=O)Nc2cc([C@H]3CC[C@@H](OC(=O)NCC=C(F)F)C3)[nH]n2)n(C)n1 [Compound 3] | 2090 nM | 86.7% | 0.218 ×10⁻⁶ cm/s | 32.8 ×10⁻⁶ cm/s | 150 | 74.6% | 90.9% | 78.2 nM | 1.22 nM | 
COCc1cc(C(=O)Nc2cc([C@H]3CC[C@@H](OC(=O)N(C)C4CCC(=C(F)F)CC4)C3)[nH]n2)n(C)n1 (stereo partly drawn) [Compound 2] | 2470 nM | 12.7% | 0.218 ×10⁻⁶ cm/s | 43.4 ×10⁻⁶ cm/s | 199 | 3.87% | 5.38% | 42.5 nM | 5.15 nM | 
